Test results taken from patent publication US20050085539A1, “Method of reducing toxicity of retinoids” (priority 2003, published 2005).

Columns and labels:
Type in all cases: in vivo, rat
[1] = tested on: vitamin A-deficient rats; experiment: Growth of vitamin A-deficient rats given the compounds orally in Wesson oil; details: for growth (weight change) of vitamin A-deficient rats: 83 pmoles/day oral in Wesson oil; for growth (weight change) of vitamin A-deficient rats / growth response of vitamin A-deficient rats: 5-day period; for activity relative to atRA in supporting growth of vitamin A-deficient rats: estimate from FIG. 4, 83 pmole/day, 5 days; for growth response of vitamin A-deficient rats: 166 pmoles/day oral in Wesson oil
Text: The first test was to determine if the esterified compounds when given orally could restore normal growth of vitamin A-deficient rats. For this study, Sprague-Dawley, weanling rats were obtained from Harlan (Indianapolis, Ind.). They were fed the purified vitamin A-deficient diet previously described (Suda et al., 1970, J. Nutr. 100:1049-1052) supplemented with vitamins D, E and K (White et al., 1998, Proc. Natl. Acad. Sci. USA 95:13459-13464). When the animals stopped growing and began to lose weight, they were administered the indicated doses per day dissolved in Wesson oil. Controls were given the Wesson oil alone (vehicle group). The weight change over the 5-day study period was analyzed by ANOVA, followed by a matrix of pairwise comparison probabilities using four post-hoc tests when the overall P value was less then 0.05. The post-hoc comparison tests included: Turkey HSD multiple comparisons, Sheffe test, Fisher's least-significant-difference test and the Bonferroni adjustment test.
Weanling male rats were obtained from the Harlan Company and were housed individually in hanging wire cages and fed the vitamin A-deficient diet described previously (Suda et al., 1970, J. Nutr. 100:1049-1052). At approximately 70 days of age, the animals began to show a leveling off of growth and began to show weight loss. At this time, they were used for the following studies: They were given either 0.1 ml of Wesson oil (vehicle) or the indicated dose of atRA dissolved in the vehicle or one of the derivatives at the indicated dose dissolved in the vehicle. Body weights were recorded daily and plotted as cumulative weight gain or loss over the study period as indicated on the graphs. A daily dose of 83 pmoles (25 μg/day) of atRA is near the minimum amount needed to produce normal growth in […] rats as compared to the vehicle controls that continue to lose weight (FIG. 1). […] When the dose was increased to 50 μg/day of atRA or 59.5 μg/day of the t-butyl derivative, as expected, the growth response was identical.

[2] = tested on: vitamin A-deficient rats; experiment: as above; details: daily oral dose (25 μg/day)
[3] = tested on: normal male rats; experiment: Acute toxicity of atRA versus t-butyl-RA in normal male rats
Method: Two independent toxicity studies were carried out with the t-butyl-RA derivative. […] However, the difference in testes weights between the atRA and t-butyl-RA groups was not statistically significant due to rather large biological variability.
We next examined the actute toxicity of the t-butyl derivative as compared to the atRA derivative in two independent trails. In these experiments, normal male rats weighing approximately 250-300 grams were used. They were individually housed in cages and given Purina lab chow as well as water ad libitum. […] This is an extremely large dose, and represents at least 3,600 times the amount of the t-butyl derivative needed to support a physiological growth response in vitamin A-deficient rats. […] Another indication of toxicity is testes weight as illustrated in FIG. 7.

[4] = 1 mmole/kg/day for 5 days, second study (FIG. 6)

## CC1=C(/C=C/C(C)=C/C=C/C(C)=C/C(=O)O)C(C)(C)CCC1 [atRA, all-trans-retinoic acid, reference compound]
[1]
  growth (weight change) of vitamin A-deficient rats: superior to that of the cholesterol ester-fed group
[2]
  daily dose near the minimum amount needed to produce normal growth: ~83 nmol

## CC1=C(/C=C/C(C)=C/C=C/C(C)=C/C(=O)O[C@H]2CC[C@@]3(C)C(=CCC4C3CC[C@@]3(C)C4CC[C@@H]3[C@H](C)CCCC(C)C)C2)C(C)(C)CCC1 (stereo partly drawn) [cholesterol ester, all-trans-retinoic acid cholesterol ester]
[1]
  growth (weight change) of vitamin A-deficient rats: significantly enhanced growth compared to vehicle control animals
  activity relative to atRA in supporting growth of vitamin A-deficient rats: one-third

## CC1=C(/C=C/C(C)=C/C=C/C(C)=C/C(=O)OC(C)(C)C)C(C)(C)CCC1 [t-butyl-RA, all-trans-retinoic acid tert-butyl ester]
[3]; [4]
  apparent toxicity / outward symptoms: no apparent toxicity
  body weight change: equal body weight accumulation
[3]; 1 mmole/kg/day, 7 days, first study (FIG. 5)
  body weight change: enabled continued growth
[1]
  growth (weight change) of vitamin A-deficient rats: did not differ significantly from that of the group fed an equal molar amount of atRA
  growth response of vitamin A-deficient rats: equivalent
  activity relative to atRA in supporting growth of vitamin A-deficient rats: equal to atRA in potency and efficacy
[1]; listed as t-butyl derivative
  growth response of vitamin A-deficient rats: identical
